The subject of one data set is dopamine release. The note with it: background statement; cited from earlier work.
The conditions of data set [1]: at every relevant dosing level tested.
Excerpt: The low intensity behavioural effects are here included into the locomotor and rearing syndrome.
The high intensity syndrome of stereotypy is here considered, if the behavioural repertoire of the rat becomes strongly restricted in variation and consists of the continuous repetition of one or a few items of behaviour.
The syndrome of stereotyped sniffing behaviour is thus performed continuously on only a small restricted area of the cage. […] During this stage of high intensity stereotypy all normal behavioural elements are absent including behaviour such as eating, drinking, grooming and normal explorative investigation of the environment. […] The rats are here usually sitting in a typical crouched posture in a corner of the cage. Backward locomotion may occasionally be observed.
The following rating scale is used for the high intensity stereotypy on the condition that the behavioural syndromes are as described above:
+=only stereotyped sniffing
++=stereotyped sniffing and episodic licking
+++=Continuous licking and/or biting gnawing

Consider `COC(=O)[C@H]1[C@@H](OC(=O)c2ccccc2)C[C@@H]2CC[C@H]1N2C` [cocaine], for which the dopamine releasing properties entry with dopamine release is “strong dopamine releasing properties”. Consider `COC(=O)[C@@H]1[C@@H](c2ccc(F)cc2)C[C@@H]2CC[C@H]1N2C` [trans isomer of Win 35,428, (1R,2R,3S)-2-carbomethoxy-3-(4-fluorophenyl)tropane], for which the “side effects as measured by abnormal stereotyped behaviour” value in data set [1] is recorded as “essentially or totally devoid of side effects”.
